In general, ΔTm refers to the change in melting temperature against a reference sample.

For assay [1], the target named is Calcium/calmodulin-dependent protein kinase type II subunit alpha (Homo sapiens) (UniProt Q9UQM7).
The target in assay [2] is Cyclin-dependent kinase 2 (Homo sapiens, UniProt P24941).
Assay [3] concerns the target Serine/threonine-protein kinase 10 (Homo sapiens) (UniProt O94804).
Assay [4] deals with T1, Mitogen-activated protein kinase kinase kinase 5 (Homo sapiens) (UniProt Q99683).
T1 sequence (whole entry): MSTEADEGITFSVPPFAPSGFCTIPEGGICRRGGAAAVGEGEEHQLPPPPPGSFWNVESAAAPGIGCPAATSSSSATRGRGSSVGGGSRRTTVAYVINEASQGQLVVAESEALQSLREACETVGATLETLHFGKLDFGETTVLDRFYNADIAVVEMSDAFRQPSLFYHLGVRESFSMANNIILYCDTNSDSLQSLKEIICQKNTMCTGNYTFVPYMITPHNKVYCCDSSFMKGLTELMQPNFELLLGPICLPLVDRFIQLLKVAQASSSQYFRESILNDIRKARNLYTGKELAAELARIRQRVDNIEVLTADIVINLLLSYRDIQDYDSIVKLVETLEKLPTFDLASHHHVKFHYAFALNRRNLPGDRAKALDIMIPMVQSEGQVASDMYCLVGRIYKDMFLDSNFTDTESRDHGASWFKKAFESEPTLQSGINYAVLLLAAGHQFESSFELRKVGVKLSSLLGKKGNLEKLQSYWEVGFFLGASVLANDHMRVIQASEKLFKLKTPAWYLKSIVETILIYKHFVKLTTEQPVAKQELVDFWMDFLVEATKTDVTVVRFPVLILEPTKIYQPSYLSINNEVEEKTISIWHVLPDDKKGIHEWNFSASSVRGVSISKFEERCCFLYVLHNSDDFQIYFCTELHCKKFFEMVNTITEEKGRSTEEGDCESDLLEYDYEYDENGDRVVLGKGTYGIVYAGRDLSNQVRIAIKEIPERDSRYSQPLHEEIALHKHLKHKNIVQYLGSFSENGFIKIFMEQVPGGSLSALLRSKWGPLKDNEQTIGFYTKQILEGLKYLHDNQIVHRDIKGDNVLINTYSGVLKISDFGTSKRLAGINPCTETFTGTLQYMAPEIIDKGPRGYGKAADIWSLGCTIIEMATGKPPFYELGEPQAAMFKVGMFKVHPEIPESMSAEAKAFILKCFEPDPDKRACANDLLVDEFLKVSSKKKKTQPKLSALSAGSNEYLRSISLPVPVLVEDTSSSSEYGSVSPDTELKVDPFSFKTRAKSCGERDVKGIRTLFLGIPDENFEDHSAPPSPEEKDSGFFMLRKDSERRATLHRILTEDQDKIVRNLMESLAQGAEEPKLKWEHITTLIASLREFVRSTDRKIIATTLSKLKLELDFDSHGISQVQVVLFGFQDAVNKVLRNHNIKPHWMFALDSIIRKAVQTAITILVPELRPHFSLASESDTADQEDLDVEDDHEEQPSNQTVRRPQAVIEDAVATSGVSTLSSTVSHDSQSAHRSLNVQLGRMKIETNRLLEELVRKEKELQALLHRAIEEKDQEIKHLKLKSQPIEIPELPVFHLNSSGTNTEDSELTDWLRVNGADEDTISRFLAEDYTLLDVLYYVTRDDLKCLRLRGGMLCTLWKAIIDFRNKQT

The target of assay [5] is Serine/threonine-protein kinase Nek6 (Homo sapiens) (UniProt Q9HC98).
Sequence of Serine/threonine-protein kinase Nek6 (Homo sapiens) (Q9HC98 whole entry): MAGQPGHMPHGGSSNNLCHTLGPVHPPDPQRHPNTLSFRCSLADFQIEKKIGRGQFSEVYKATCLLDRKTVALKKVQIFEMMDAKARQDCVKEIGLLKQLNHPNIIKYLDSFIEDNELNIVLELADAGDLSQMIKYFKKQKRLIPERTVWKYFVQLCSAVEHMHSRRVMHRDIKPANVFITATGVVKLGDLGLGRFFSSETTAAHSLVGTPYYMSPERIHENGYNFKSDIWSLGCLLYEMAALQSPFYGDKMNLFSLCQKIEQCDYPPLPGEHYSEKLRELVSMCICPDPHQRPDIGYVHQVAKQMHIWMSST
Assay [6] concerns the target Serine/threonine-protein kinase VRK2 (Homo sapiens) (UniProt Q86Y07).
In assay [7] the target is Serine/threonine-protein kinase 26 (Homo sapiens) (UniProt Q9P289).
In assay [8] the target is cAMP-dependent protein kinase catalytic subunit alpha (Homo sapiens) (UniProt P17612).
For assay [9], the target named is Calcium/calmodulin-dependent protein kinase type II subunit beta (Homo sapiens) (UniProt Q13554).
Sequence of Calcium/calmodulin-dependent protein kinase type II subunit beta (Homo sapiens) (Q13554 whole entry): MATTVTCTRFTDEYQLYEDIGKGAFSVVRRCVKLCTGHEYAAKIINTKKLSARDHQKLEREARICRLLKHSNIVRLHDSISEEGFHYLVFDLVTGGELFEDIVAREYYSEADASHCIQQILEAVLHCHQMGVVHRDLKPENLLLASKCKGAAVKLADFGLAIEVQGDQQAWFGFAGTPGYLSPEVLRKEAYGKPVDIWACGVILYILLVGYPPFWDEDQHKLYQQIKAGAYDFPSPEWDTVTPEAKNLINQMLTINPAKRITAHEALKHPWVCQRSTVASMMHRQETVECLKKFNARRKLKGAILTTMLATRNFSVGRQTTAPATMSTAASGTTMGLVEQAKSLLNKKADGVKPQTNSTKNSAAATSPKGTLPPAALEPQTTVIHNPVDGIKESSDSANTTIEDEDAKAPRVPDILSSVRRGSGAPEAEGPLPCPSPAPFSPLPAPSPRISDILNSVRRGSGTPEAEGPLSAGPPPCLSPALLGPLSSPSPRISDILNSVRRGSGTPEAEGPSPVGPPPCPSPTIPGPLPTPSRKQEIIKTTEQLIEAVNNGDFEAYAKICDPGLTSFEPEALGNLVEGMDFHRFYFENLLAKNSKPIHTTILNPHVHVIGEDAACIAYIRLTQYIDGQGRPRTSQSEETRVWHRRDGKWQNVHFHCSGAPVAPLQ
For assay [10], the target named is Death-associated protein kinase 3 (Homo sapiens) (UniProt O43293).
Sequence of Death-associated protein kinase 3 (Homo sapiens) (O43293 whole entry, looked up): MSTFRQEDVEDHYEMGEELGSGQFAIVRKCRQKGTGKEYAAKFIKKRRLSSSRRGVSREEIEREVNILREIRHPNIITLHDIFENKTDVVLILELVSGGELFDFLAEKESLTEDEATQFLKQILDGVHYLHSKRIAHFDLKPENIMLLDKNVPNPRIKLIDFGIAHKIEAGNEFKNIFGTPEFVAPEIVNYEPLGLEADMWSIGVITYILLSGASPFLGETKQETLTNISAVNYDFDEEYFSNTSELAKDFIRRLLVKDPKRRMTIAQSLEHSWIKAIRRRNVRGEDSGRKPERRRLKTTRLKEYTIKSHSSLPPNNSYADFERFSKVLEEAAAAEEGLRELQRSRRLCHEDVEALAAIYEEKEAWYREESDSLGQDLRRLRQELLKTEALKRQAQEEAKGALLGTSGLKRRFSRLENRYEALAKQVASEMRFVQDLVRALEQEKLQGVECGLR
The target of assay [11] is Serine/threonine-protein kinase RIO2 (Homo sapiens) (UniProt Q9BVS4).
Assay [12] deals with Serine/threonine-protein kinase Chk2 (Homo sapiens, UniProt O96017).
Assay [13] addresses Serine/threonine-protein kinase pim-1 (Homo sapiens) (UniProt P11309).
Assay [14] deals with Serine/threonine-protein kinase OSR1 (Homo sapiens) (UniProt O95747).
The target of assay [15] is Serine/threonine-protein kinase PLK1 (Homo sapiens) (UniProt P53350).
Sequence of Serine/threonine-protein kinase PLK1 (Homo sapiens) (P53350 whole entry): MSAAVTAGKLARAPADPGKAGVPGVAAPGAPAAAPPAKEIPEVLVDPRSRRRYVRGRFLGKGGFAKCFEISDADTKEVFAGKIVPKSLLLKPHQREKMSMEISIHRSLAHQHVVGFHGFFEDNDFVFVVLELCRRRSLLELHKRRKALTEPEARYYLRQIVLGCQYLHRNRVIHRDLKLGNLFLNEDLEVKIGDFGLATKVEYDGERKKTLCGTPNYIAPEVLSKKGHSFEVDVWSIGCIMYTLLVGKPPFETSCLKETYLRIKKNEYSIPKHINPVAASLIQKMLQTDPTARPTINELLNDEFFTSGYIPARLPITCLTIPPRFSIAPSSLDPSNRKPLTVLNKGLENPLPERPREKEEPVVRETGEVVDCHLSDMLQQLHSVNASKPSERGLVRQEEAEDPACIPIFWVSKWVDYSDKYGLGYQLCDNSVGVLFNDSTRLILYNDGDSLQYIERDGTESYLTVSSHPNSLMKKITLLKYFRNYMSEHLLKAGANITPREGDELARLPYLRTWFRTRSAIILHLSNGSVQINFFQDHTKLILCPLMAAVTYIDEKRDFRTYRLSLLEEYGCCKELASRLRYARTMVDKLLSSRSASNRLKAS
In assay [16] the target is Dual specificity protein kinase CLK2 (Homo sapiens) (UniProt P49760).
Sequence of Dual specificity protein kinase CLK2 (Homo sapiens) (P49760 whole entry, looked up): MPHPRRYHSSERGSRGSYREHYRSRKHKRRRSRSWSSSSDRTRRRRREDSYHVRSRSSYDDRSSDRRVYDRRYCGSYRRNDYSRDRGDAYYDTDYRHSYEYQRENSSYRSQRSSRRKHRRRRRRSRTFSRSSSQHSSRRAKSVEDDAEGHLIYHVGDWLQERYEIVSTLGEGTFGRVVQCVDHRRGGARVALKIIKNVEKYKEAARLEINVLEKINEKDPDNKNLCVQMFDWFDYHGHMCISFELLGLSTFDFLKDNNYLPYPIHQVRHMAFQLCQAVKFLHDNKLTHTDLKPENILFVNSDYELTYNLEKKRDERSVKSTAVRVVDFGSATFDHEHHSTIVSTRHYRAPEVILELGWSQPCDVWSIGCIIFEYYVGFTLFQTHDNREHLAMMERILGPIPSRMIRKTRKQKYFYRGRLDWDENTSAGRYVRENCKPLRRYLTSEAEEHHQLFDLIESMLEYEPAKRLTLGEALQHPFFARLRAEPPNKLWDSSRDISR
The target in assay [17] is T2, Myotonin-protein kinase (Homo sapiens) (UniProt Q09013).
T2 sequence (whole entry): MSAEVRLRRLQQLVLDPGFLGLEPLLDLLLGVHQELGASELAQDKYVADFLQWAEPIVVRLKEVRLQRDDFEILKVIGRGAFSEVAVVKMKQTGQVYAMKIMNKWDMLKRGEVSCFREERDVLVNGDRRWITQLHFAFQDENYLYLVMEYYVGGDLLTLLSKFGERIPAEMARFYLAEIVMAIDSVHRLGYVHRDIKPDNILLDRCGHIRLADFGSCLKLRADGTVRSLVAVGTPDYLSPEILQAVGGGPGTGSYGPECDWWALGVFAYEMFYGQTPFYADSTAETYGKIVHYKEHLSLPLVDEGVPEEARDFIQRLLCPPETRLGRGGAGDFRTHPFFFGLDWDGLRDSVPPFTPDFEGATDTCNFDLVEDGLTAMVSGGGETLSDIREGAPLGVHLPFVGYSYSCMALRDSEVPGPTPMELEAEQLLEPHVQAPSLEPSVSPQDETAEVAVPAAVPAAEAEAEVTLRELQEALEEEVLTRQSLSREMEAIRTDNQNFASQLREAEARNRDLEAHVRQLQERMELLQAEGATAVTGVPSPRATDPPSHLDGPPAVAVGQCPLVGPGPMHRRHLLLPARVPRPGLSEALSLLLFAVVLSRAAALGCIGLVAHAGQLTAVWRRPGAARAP

For assay [18], the target named is Serine/threonine-protein kinase PAK 6 (Homo sapiens) (UniProt Q9NQU5).
Sequence of Serine/threonine-protein kinase PAK 6 (Homo sapiens) (Q9NQU5 whole entry, looked up): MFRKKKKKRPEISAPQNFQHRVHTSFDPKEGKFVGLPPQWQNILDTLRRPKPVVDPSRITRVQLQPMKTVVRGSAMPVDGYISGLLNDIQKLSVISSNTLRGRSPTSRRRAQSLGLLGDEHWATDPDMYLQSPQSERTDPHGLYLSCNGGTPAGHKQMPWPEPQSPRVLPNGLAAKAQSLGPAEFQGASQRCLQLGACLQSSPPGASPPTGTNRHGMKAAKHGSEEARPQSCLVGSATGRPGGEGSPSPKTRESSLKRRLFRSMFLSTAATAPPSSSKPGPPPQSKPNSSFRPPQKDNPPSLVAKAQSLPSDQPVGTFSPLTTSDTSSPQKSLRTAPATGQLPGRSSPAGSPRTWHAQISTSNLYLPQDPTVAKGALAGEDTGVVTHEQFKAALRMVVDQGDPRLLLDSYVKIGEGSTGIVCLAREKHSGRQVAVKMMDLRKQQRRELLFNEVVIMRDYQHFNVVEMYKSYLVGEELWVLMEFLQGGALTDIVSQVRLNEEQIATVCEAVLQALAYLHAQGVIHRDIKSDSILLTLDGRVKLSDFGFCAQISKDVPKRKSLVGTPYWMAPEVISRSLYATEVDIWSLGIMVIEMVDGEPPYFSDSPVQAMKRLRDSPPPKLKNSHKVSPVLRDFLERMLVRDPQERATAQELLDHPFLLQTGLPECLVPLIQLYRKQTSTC

Sequence of Serine/threonine-protein kinase 10 (Homo sapiens) (O94804 whole entry, looked up): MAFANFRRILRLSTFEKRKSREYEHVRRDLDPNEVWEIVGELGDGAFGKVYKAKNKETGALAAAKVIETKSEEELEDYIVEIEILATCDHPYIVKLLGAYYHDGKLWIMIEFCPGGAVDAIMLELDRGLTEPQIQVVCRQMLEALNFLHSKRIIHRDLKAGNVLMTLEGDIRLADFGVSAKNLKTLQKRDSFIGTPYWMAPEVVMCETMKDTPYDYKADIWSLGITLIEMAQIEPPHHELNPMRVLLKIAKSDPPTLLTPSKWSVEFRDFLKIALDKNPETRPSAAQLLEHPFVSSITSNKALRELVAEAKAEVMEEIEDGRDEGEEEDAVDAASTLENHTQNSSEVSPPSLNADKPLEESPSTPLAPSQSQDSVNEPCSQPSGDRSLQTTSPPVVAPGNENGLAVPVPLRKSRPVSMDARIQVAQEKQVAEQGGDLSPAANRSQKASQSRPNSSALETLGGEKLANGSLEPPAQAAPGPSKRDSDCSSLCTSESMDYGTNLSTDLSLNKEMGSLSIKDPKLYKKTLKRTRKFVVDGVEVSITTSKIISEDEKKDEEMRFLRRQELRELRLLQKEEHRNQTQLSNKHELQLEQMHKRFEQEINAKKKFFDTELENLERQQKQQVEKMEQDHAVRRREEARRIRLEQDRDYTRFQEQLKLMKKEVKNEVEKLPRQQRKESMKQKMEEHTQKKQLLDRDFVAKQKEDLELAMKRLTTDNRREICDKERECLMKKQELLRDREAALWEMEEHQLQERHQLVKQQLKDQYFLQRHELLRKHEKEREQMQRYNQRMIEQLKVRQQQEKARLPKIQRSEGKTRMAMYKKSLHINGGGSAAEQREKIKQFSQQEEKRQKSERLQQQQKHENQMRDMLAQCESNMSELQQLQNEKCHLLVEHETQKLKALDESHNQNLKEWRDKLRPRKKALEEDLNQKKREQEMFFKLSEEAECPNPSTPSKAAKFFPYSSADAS
Sequence of Serine/threonine-protein kinase pim-1 (Homo sapiens) (P11309 whole entry, looked up): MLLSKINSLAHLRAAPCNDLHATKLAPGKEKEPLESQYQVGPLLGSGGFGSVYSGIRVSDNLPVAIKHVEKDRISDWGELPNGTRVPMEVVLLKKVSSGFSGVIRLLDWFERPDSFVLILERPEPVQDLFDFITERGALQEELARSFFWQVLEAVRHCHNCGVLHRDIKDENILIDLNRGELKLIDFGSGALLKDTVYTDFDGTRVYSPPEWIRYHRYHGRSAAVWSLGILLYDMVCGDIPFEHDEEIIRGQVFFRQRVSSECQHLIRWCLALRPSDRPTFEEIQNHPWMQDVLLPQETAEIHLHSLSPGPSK
Sequence of Serine/threonine-protein kinase VRK2 (Homo sapiens) (Q86Y07 whole entry): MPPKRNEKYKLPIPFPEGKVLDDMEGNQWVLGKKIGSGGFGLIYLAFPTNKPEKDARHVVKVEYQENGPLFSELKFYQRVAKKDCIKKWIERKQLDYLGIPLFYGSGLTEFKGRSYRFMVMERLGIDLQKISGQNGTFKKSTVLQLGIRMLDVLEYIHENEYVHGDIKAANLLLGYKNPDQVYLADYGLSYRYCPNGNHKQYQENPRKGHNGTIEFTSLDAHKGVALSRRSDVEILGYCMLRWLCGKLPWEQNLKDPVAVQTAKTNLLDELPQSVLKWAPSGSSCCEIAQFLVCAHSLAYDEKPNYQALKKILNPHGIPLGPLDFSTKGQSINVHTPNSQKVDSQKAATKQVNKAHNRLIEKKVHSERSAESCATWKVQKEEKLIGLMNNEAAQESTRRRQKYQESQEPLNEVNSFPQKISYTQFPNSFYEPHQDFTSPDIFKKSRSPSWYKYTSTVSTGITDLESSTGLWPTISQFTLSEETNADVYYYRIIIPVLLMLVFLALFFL

For `N#C/C(=C1/Nc2ccccc2S1)c1ccnc(NCCc2cccnc2)n1`, the ΔTm in assay [1] turned out to be 2.6 °C; in [2], 6.3 °C; in assay [3], 1.4 °C; in assay [4] it was 3.6 °C; in [5], 1.7 °C; in assay [6], 1.8 °C. The ΔTm in assay [7] was 0.9 °C; in assay [8] it was 1.6 °C; in assay [9], 1.8 °C; in [10] it was 1.6 °C; in assay [11] it was 7 °C; in [12] it was 5.2 °C. Besides, the ΔTm in assay [13] stood at 10 °C; in [14] it was 1.4 °C; in assay [15] it was 2.1 °C; in [16] it was 4.4 °C; in assay [17], 6 °C; in assay [18], 1.6 °C.

As for `CC(C)(C)c1cc(C=C2C(=O)C=CC2=O)cc(C(C)(C)C)c1O`, the ΔTm in assay [1] was determined as 0.3 °C; in assay [2], 1.2 °C; in assay [3], 0.4 °C; in assay [4], 0.1 °C; in assay [5] it was 0.2 °C; in assay [6] it was 0 °C. In addition, the ΔTm in assay [7] was 0 °C; in [8], 0.8 °C; in assay [9] it was -0.3 °C; in assay [10], -0.4 °C; in assay [11], 0.3 °C; in assay [12] it was 1.8 °C. Further, the ΔTm in [13] is -1.1 °C; in assay [14] it was 0.3 °C; in assay [15], 1.1 °C; in assay [16] it was 0.4 °C; in [17] it was 1.4 °C; in assay [18] it was -2.5 °C.

Consider `O=Nc1c(-c2c(O)[nH]c3ccccc23)[nH]c2ccccc12`, for which the ΔTm was 3.9 °C in [1]; 6.6 °C in assay [2]; 4.2 °C in [3]; 5.7 °C in [4]; 0.1 °C in assay [5]; 3.1 °C in [6]. In addition, the ΔTm came out at 2.7 °C in assay [7]; 3.8 °C in [8]; 1.6 °C in [9]; 1.2 °C in assay [10]; 2.6 °C in assay [11]; 3.1 °C in assay [12]. For the same compound, the ΔTm in [13] was 2 °C; in [14], 1.7 °C; in [15], 0.2 °C; in [16], 1.5 °C; in assay [17] it was -0.3 °C; in [18] it was 1.7 °C.

Turning to `O=C1Nc2ccc(I)cc2/C1=C\c1cc(Br)c(O)c(Br)c1`, the ΔTm in assay [1] is -0.8 °C; in [2], 1.2 °C; in [3], 0.5 °C; in assay [4], 1.7 °C; in assay [5], 0 °C; in assay [6], 1.7 °C. Further, the ΔTm in assay [7] was 1.6 °C; in assay [8], 1 °C; in [9], -0.1 °C; in assay [10], 2.6 °C; in assay [11], -0.4 °C; in assay [12], 0.1 °C. The shift in melting temperature (ΔTm) in [13] was 2.5 °C; in assay [14] it was -0.4 °C; in [15], 0.5 °C; in [16] it was 1.2 °C; in [17] it was 0.2 °C; in assay [18] it was -0.3 °C.

In the case of `Nc1ncnc2c1c(I)cn2[C@@H]1O[C@H](CO)[C@@H](O)[C@H]1O`, the ΔTm in assay [1] was 0.7 °C; in assay [2] it was 2.9 °C; in assay [3] it was 4.7 °C; in assay [4], 0.9 °C; in assay [5] it was -0.2 °C; in [6] it was 0.1 °C. For the same compound, the ΔTm in [7] was 2.1 °C; in assay [8], 1.3 °C; in assay [9], 0.4 °C; in assay [10] it was 2.9 °C; in [11], 1.7 °C; in [12], 0.9 °C. Also, the ΔTm in [13] was 1.1 °C; in assay [14], 2.4 °C; in assay [15], 1 °C; in assay [16], 5.6 °C; in assay [17], -0.3 °C; in assay [18], 1.1 °C.

For `CC(C)n1cnc2c(NCc3ccccc3O)nc(NCCCO)nc21`, the ΔTm is 0 °C in [1]; 1.2 °C in [2]; 0.5 °C in assay [3]; 1 °C in [4]; 0 °C in assay [5]; 0.6 °C in assay [6]. In addition, the shift in melting temperature (ΔTm) was 0.3 °C in assay [7]; 0.2 °C in [8]; 0.3 °C in [9]; 0.2 °C in [10]; -0.1 °C in [11]; -0.4 °C in assay [12]. The ΔTm in [13] was -1.3 °C; in assay [14] it was 0.3 °C; in [15], 0.5 °C; in assay [16], 1 °C; in [17], 0 °C; in [18], 0.3 °C.

For the compound `Nc1nccc(-c2c(-c3ccc(F)cc3)ncn2C2CCNCC2)n1`, the ΔTm was 0.4 °C in assay [1]; -0.8 °C in assay [2]; 1.5 °C in assay [3]; 0.3 °C in assay [4]; -0.2 °C in [5]; 0.2 °C in assay [6]. Moreover, the ΔTm in [7] was 2.1 °C; in assay [8] it was 0.7 °C; in assay [9], -0.2 °C; in assay [10], 0.8 °C; in assay [11], 0.2 °C; in assay [12], 0.1 °C. In addition, the ΔTm in assay [13] was -0.1 °C; in assay [14] it was 0.3 °C; in assay [15], 0.1 °C; in assay [16], 0.3 °C; in assay [17], 0.6 °C; in assay [18], -0.5 °C.

The values are drawn from ChEMBL document CHEMBL1145498, “A systematic interaction map of validated kinase inhibitors with Ser/Thr kinases” (Proc Natl Acad Sci U S A, 2007).
